The source made the active and inactive calls. No cut-off for these calls is given here.
How the values were obtained:
Type in all cases: cell-based
[1] = target: T1, Retinoic acid receptor alpha (Mus musculus) (UniProt P11416); test: Agonist activity at Gal4-fused mouse RAR-alpha transfected in human HeLa cells after 12 hrs by luciferase reporter gene assay
T1 sequence (whole entry): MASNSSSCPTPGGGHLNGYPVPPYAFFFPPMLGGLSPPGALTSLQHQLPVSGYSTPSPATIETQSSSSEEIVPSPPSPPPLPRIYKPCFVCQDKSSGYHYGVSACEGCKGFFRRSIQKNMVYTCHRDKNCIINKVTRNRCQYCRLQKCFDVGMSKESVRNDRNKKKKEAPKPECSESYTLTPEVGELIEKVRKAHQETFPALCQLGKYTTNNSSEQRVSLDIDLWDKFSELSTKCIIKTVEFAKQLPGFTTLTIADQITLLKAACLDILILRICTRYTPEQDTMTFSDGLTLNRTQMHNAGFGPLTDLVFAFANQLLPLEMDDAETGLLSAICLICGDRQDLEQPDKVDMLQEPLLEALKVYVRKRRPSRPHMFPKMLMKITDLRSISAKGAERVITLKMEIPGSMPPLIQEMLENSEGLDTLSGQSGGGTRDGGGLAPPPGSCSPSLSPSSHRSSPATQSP

[2] = target: T2, Retinoic acid receptor beta (Mus musculus) (UniProt P22605); test: Agonist activity at Gal4-fused mouse RAR-beta transfected in human HeLa cells at 10 uM after 12 hrs by luciferase reporter gene assay
T2 sequence (whole entry): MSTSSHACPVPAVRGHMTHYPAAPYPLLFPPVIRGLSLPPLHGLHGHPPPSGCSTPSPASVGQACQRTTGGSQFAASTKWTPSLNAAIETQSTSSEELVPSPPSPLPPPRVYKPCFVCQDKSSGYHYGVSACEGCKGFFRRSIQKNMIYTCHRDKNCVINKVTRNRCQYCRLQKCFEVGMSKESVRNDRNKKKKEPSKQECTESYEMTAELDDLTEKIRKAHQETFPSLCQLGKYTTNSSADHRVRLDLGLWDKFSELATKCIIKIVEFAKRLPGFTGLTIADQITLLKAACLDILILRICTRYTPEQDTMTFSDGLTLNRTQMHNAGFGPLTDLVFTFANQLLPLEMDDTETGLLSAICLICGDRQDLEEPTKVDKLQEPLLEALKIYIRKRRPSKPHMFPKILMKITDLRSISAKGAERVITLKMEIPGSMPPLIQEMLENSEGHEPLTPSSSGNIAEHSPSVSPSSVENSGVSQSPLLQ

[3] = target: T3, Retinoic acid receptor gamma (Mus musculus) (UniProt P18911); test: Agonist activity at Gal4-fused mouse RAR-gamma transfected in human HeLa cells at 10 uM after 12 hrs by luciferase reporter gene assay
T3 sequence (whole entry): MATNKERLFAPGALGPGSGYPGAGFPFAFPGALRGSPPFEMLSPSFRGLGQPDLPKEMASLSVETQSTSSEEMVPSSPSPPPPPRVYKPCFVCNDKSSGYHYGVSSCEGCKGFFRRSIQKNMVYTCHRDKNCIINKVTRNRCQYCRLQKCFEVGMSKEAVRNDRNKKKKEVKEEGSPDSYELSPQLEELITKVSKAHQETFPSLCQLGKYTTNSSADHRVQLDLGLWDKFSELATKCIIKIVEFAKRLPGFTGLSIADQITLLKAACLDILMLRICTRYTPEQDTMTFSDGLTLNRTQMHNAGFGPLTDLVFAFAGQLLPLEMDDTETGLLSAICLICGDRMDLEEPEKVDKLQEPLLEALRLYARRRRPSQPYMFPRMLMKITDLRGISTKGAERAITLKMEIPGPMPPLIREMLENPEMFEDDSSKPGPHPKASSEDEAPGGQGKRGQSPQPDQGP

[4] = target: T2, Retinoic acid receptor beta (Mus musculus); test: Agonist activity at Gal4-fused mouse RAR-beta transfected in human HeLa cells at >1 uM after 12 hrs by luciferase reporter gene assay
[5] = target: T4, Retinoic acid receptor RXR-beta (Homo sapiens) (UniProt P28702); test: Agonist activity at Gal4-fused human RXR-beta transfected in human HeLa cells after 12 hrs by luciferase reporter gene assay
T4 sequence (whole entry): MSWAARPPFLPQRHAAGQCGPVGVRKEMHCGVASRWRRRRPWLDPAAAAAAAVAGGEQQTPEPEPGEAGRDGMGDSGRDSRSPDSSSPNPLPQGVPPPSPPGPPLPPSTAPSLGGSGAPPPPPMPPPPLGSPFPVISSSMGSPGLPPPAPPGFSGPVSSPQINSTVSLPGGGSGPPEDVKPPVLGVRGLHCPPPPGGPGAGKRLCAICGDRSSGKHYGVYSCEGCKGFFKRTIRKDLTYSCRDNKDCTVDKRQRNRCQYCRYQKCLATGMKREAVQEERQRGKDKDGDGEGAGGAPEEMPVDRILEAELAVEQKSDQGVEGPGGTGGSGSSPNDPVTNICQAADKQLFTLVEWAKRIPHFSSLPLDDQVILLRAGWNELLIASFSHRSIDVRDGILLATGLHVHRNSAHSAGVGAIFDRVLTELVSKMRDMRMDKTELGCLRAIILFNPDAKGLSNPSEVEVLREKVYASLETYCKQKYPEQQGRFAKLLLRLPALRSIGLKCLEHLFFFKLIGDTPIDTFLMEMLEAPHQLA

[6] = target: T1, Retinoic acid receptor alpha (Mus musculus); test: Agonist activity at Gal4-fused mouse RAR-alpha transfected in human HeLa cells at 1 uM after 12 hrs by luciferase reporter gene assay
[7] = target: T2, Retinoic acid receptor beta (Mus musculus); test: Agonist activity at Gal4-fused mouse RAR-beta transfected in human HeLa cells at 1 uM after 12 hrs by luciferase reporter gene assay
[8] = target: T3, Retinoic acid receptor gamma (Mus musculus); test: Agonist activity at Gal4-fused mouse RAR-gamma transfected in human HeLa cells at 1 uM after 12 hrs by luciferase reporter gene assay
[9] = target: T4, Retinoic acid receptor RXR-beta (Homo sapiens); test: Agonist activity at Gal4-fused human RXR-beta transfected in human HeLa cells at 51 nM after 12 hrs by luciferase reporter gene assay relative to control
[10] = target: T4, Retinoic acid receptor RXR-beta (Homo sapiens); test: Agonist activity at Gal4-fused human RXR-beta transfected in human HeLa cells at 125 nM after 12 hrs by luciferase reporter gene assay relative to control
[11] = target: T4, Retinoic acid receptor RXR-beta (Homo sapiens); test: Agonist activity at Gal4-fused human RXR-beta transfected in human HeLa cells at 875 nM after 12 hrs by luciferase reporter gene assay relative to control
[12] = target: T4, Retinoic acid receptor RXR-beta (Homo sapiens); test: Agonist activity at Gal4-fused human RXR-beta transfected in human HeLa cells at 541 nM after 12 hrs by luciferase reporter gene assay relative to control
[13] = target: T1, Retinoic acid receptor alpha (Mus musculus); test: Antagonist activity at Gal4-fused mouse RAR-alpha transfected in human HeLa cells after 12 hrs by luciferase reporter gene assay
[14] = target: T2, Retinoic acid receptor beta (Mus musculus); test: Antagonist activity at Gal4-fused mouse RAR-beta transfected in human HeLa cells after 12 hrs by luciferase reporter gene assay
[15] = target: T3, Retinoic acid receptor gamma (Mus musculus); test: Antagonist activity at Gal4-fused mouse RAR-gamma transfected in human HeLa cells after 12 hrs by luciferase reporter gene assay

Compound	Activity [1]	Activity [2]	Activity [3]	Activity [4]	Activity [5]	Activity [6]	Activity [7]	Activity [8]	fold change (FC) [9]	fold change (FC) [10]	fold change (FC) [11]	fold change (FC) [12]	Activity [13]	Activity [14]	Activity [15]
O=C(O)c1ccc(NC(=O)c2ccc3c(-c4ccccc4)ccc(-c4ccccc4)c3c2)cc1	inactive	Active	Active	Active											
O=C(O)c1ccc(/C=C/c2ccc3c(-c4ccccc4)ccc(-c4ccccc4)c3c2)c(F)c1					Active	inactive	inactive	inactive	15	15	15	15	Active	Active	Active
O=C(O)c1ccc(/C=C/c2ccc3c(-c4ccccc4)ccc(-c4ccccc4)c3c2)cc1					Active	inactive	inactive	inactive	15	15	15	15	Active	Active	Active
O=C(O)c1ccc(NC(=O)c2ccc3c(-c4ccccc4)ccc(-c4ccccc4)c3c2)c(Cl)c1	inactive	Active	Active												
C/C(=C\c1ccc(C(=O)O)cc1)c1ccc2c(c1)C(C)(C)CCC2(C)C									15	15	15	15			
O=C(O)c1ccc(NC(=O)c2ccc3c(-c4ccccc4)ccc(-c4ccccc4)c3c2)c(F)c1	inactive	Active	Active												
O=C(O)c1ccc(/C=C/c2ccc3c(-c4ccccc4)ccc(-c4ccccc4)c3c2)c(Br)c1					Active	inactive	inactive	inactive	15	15	15	15	Active	Active	Active

Reference: ChEMBL document CHEMBL3286114, “Dual RXR Agonists and RAR Antagonists Based on the Stilbene Retinoid Scaffold” (ACS Med Chem Lett, 2014)
